Source: paper PMC12053642, “Oral PRI-002 treatment in patients with MCI or mild AD: a randomized, double-blind phase 1b trial” (Nature Communications, 2025)
Several values for one entry are separate records, joined by “and”; a condition that tells them apart may be missing. Identical values can stand only once. Entries after “also recorded” stand apart in the source; their conditions may differ. Square brackets hold non-standard residues; d marks the D form. Peptide text beside a SMILES is read from it.

Key:
[1] = tested on: patients with MCI or mild dementia due to AD; assay: Mini-Mental State Examination (MMSE); type: in vivo, human; conditions: 300 mg q.d. oral 28 d
Excerpt: Twenty male and female (not of childbearing potential) patients between 50 and 80 years of age, with a Mini mental state examination (MMSE) score of 22 to 30, CSF biomarkers indicating AD pathology (p-tau >62 pg/ml, total CSF Aβ 1-42/1-40 ratio ≤0.055), a MRI scan in accordance with AD diagnosis not older than 3 months, at least 3 months stable medication prior to screening, were enrolled. Nineteen patients were randomized and data analyzed, one patient dropped out by withdrawal of the informed consent before treatment was initiated. Patients underwent an extensive clinical workup and received a MRI brain scan as well as a lumbar puncture. […] Patients who met any of the following criteria were not eligible for enrollment: History of seizures, stroke or transient ischemic attack, unstable medical, neurological, or psychiatric condition. Current treatment with typical antipsychotic or neuroleptic medication or within 6 months prior to screening. Anticoagulants within 3 months prior to screening, chronic use of opiates or opioids (including long-acting opioid medication) within 3 months prior to screening, stimulant medications (amphetamine, methylphenidate preparations, or modafinil) within 1 month prior to screening and throughout the study, chronic use of benzodiazepines, barbiturates, or hypnotics. […]

[2] = tested on: patients with MCI or mild dementia due to AD; assay: Safety MRI (ARIA); type: in vivo, human; conditions: MRI at screening, after Day 28 and Day 56, 300 mg q.d. oral 28 d, n=9
Procedure: For safety assessment during baseline, at Day 14, 28, and 56, laboratory parameters and vital signs were measured, a physical exam was performed, and ECGs were recorded per protocol. A safety MRI was performed at screening, a second one within 3 days after day 28 and a third one at Day 56. During baseline and at day 28, EEG measurements were performed. In addition, nature, frequency, severity, and timing of AEs and SAEs were recorded at day 14, 28, and 56. Standardized AE reports were provided and analysed by the Data Safety and Monitoring Board (DSMB).

p-tau = assay: CSF p-tau181, Lumipulse immunoassay; type: in vivo, human; conditions: Day 28, n=9, 300 mg q.d. oral 28 d
Procedure: The effect of PRI-002 on cognition and function was tested by the CERAD+ battery and CDR-SB at baseline, Day 28, and Day 56, exploratory endpoints included the change of biomarkers (p-tau, t-tau, Aβ 1-40, Aβ 1-42 and Aβ oligomers) in CSF, blood plasma; change in CERAD+ test battery and CDR-SB scores.

[3] = tested on: patients with MCI or mild dementia due to AD; assay: Adverse events assessment (AE/SAE, MedDRA 23.0), phase 1b trial; conditions: 300 mg q.d. oral 28 d
Procedure: During treatment, the frequency of study visits at the trial site was 14 days (Day 1, day 14, Day 28). A last assessment took place at Day 56. At Day 7 and Day 21 additional phone contacts for safety assessments were performed.
For safety assessment during baseline, at Day 14, 28, and 56, laboratory parameters and vital signs were measured, a physical exam was performed, and ECGs were recorded per protocol. […] In addition, nature, frequency, severity, and timing of AEs and SAEs were recorded at day 14, 28, and 56. Standardized AE reports were provided and analysed by the Data Safety and Monitoring Board (DSMB).
Primary endpoints included nature, frequency, severity, and timing of AEs and SAEs; changes in routine laboratory values, ECG, MRI, EEG, and vital signs.

[4] = Pharmacokinetics of PRI-002 in plasma; conditions: 300 mg q.d. oral; for AUC(0-t): AUC 0-4 hours
Procedure: The effect on biomarker was assessed during baseline and after 28 days of medication. CSF collection and blood sampling were performed to determine PRI-002 concentration, which was conducted by Nuvisan (Neu-Ulm, Germany) and to exploratively estimate the effect of PRI-002 on the modulation of Aβ 1-40, Aβ 1-42, Aβ oligomers, total tau (t-tau), and phospho tau (p-tau). Aβ 1-40, Aβ 1-42, t-tau and p-tau181 were measured by immunoassay, using the Lumipulse platform (Fujirebio, Tokyo, Japan) and Aβ oligomers concentrations were determined using sFIDA technology[31]–[33] by attyloid GmbH (Düsseldorf, Germany). The effect of PRI-002 on cognitive and functional performance was measured by repetitively applying the CERAD+ battery and the Clinical Dementia Rating (CDR) at baseline, at Day 28 and additionally at the last visit (Day 56).
Secondary endpoints included the evaluation of pharmacokinetic characteristics of PRI-002 by determination of maximum plasma concentration (Cmax), time to reach maximum plasma concentration (Tmax), half-life (t1/2) calculated from PRI-002 plasma concentrations; and the determination of CSF concentrations of PRI-002.
4 Pharmacokinetic sampling X X
1 Heart rate and blood pressure: Day 1: at pre-dose and 2 hours±15 minutes; Day 14 and 28: at pre-
dose; 2 ECG Day 1: at pre-dose and 2 hours ± 15 minutes; Day 14 and 28: at pre-dose; 3 Safety
MRI was scheduled at screening and within three days after Day 28 and Day 56;4 Pharmacokinetic
sampling Day 1 and Day 28: at pre-dose, 30 minutes ± 15 minutes, 1 hour ± 15 minutes, 2
hours ± 15 minutes, and 4 hours ± 15 minutes.

[5] = PRI-002 concentration in CSF; type: in vivo, human
Procedure: In addition, also CSF levels of PRI-002 were determined. Due to non-specific binding of PRI-002 to vials used for sampling and storage the measured values, which are depicted in the Supplementary Table 7 are minimal values and the actual values will most probably be higher than reported here.
(11) Why were there no PK (drug concentration) assessments in CSF? Because BBB penetration in mice vs humans can diverge, matching CSF drug concentrations in human to those achieved in the animal pharmacology studies would be more compelling than matching […] drug concentrations. If there is a fundamental technical problem, it should be mentioned in the manuscript. […]
were unable to determine exact values. Due to non-specific binding of PRI-002 to vials used for sampling and storage of CSF, the measured values, which are depicted in the Table below are minimal values and will probably be higher than reported here.
Considering the three CSF samples in which the PRI-002 levels were above the LLOQ, approximately 15% of the mean predose plasma level of all patients at Day 28 (1.97±2.4 ng/ml) reached the CSF and […]
We will include the Table S5 in the supplement and the following sentence in the results part page 11, line 327-331: ”In addition, also CSF levels of PRI-002 were determined. Due to non -specific binding of PRI-002 to vials used for sampling and storage the measured values, which are depicted in the Table S7 are minimal values and the actual values will most probably be higher than reported here.
Considering the three CSF samples in which the PRI -002 levels were above the LLOQ, approximately […]
Table S7 PRI-002 Level in CSF of […]

[6] = plasma, Day 1 (n=9), Max, MCI/mild AD patients
[7] = plasma, Day 1 (n=9), Mean ± SD, MCI/mild AD patients
[8] = plasma, Day 1 (n=9), Min, MCI/mild AD patients
[9] = plasma, Day 28 (n=8), Max, MCI/mild AD patients

For CC(C)C[C@@H](NC(=O)[C@H](NC(=O)[C@H]1CCCN1)[C@H](C)O)C(=O)N[C@H](Cc1c[nH]cn1)C(=O)N[C@@H](C(=O)N[C@H](Cc1c[nH]cn1)C(=O)N[C@H](CC(N)=O)C(=O)N[C@H](CCCNC(=N)N)C(=O)N[C@H](CCCNC(=N)N)C(=O)N[C@H](CCCNC(=N)N)C(=O)N[C@H](CCCNC(=N)N)C(=O)N[C@H](CCCNC(=N)N)C(N)=O)[C@H](C)O [PRI-002] (H-[dP][dT][dL][dH][dT][dH][dN][dR][dR][dR][dR][dR]-NH2; N-terminus and C-terminus assumed), the “MMSE, Mean” value ([1]; Day 28, n=8) was 27.9, the “MMSE, Mean” value ([1]; Day 56, n=9) was 27.2 and the “MRI: ARIA, edematous changes” value [2] was “no edematous changes; also recorded: no ARIA”. The “p-tau, Mean” value (p-tau) was 112.4 pg/mL, the tolerability ([3]; n=9) was “well tolerated” and the “SAEs or deaths during the trial” value ([3]; n=9, Day 1-56) was “No SAEs or deaths; also recorded: No SAEs”. For the same compound, the “AEs probably or possibly related to study treatment, number” value (“AEs probably or possibly related” below) ([3]; Mild (grade 1), n=9) was 4, the “AEs probably or possibly related” value ([3]; Moderate (grade 2), n=9) was 2 and the “AEs probably or possibly related” value ([3]; Severe (grade 3), n=9) was 0. The “Gastrointestinal disorders, number of AEs” value ([3]; TOTAL, all grades, n=9) was 1, the “Injury, poisoning and procedural complications, number of AEs” value ([3]; TOTAL, all grades, n=9) was 1 and the “Musculoskeletal and connective tissue disorders, number of AEs” value ([3]; TOTAL, all grades, n=9) was 1. For the same compound, the “Gastrointestinal disorders, number of AEs” value ([3]; grade 1 (Mild), n=9) was 1, the “Injury, poisoning and procedural complications, number of AEs” value ([3]; grade 1 (Mild), n=9) was 1 and the “Musculoskeletal and connective tissue disorders, number of AEs” value ([3]; grade 1 (Mild), n=9) was 1. For the same compound, the “Nervous system disorders, number of AEs” value ([3]; grade 1 (Mild), n=9) was 5, the “Number of subjects with at least one AE” value ([3]; grade 1 (Mild), n=9) was 4 and the “Psychiatric disorders, number of AEs” value ([3]; grade 1 (Mild), n=9) was 3. The “Total number of AEs” value ([3]; grade 1 (Mild), n=9) was 14, the “Nervous system disorders, number of AEs” value ([3]; grade 2 (Moderate), n=9) was 2 and the “Number of subjects with at least one AE” value ([3]; grade 2 (Moderate), n=9) was 1. The “Number of subjects with at least one AE” value ([3]; grade 3 (Severe), n=9) was 0, the “Total number of AEs” value ([3]; grade 3 (Severe), n=9) was 0 and the “subjects with one or more AEs” value ([3]; safety population, n=9) was 56%. For the same compound, the “PRI-002 plasma level, Mean” value ([4]; Day 1, 0 h, n=9, MCI/mild AD patients) was 0 ng/mL, the “AUC 0-4 hours, individual patients” value ([4]; Day 1, one line per patient) was 8.54 ng·h/mL and the “C max (PRI-002 plasma level Day 1), individual patients” value ([4]; Day 1, one line per patient) was 3.43 ng/mL and 1 ng/mL and 2.02 ng/mL and 3.03 ng/mL and 2.84 ng/mL and 10.2 ng/mL and 6.52 ng/mL and 10.4 ng/mL and 0.66 ng/mL and 0.70 ng/mL and 1.00 ng/mL. For the same compound, the “T max, individual patients” value ([4]; Day 1, one line per patient) was 0.50 h (3×) and 2.00 h and 4.00 h (3×) and 1.00 h (2×), the Css trough ([4]; Day 28 (n=8), Max, MCI/mild AD patients) was 7.45 and the “C max, individual patients” value ([4]; Day 28, one line per patient) was 1.76 ng/mL and 18.10 ng/mL and 9.37 ng/mL and 31.40 ng/mL and 2.42 ng/mL and 32.90 ng/mL and 2.24 ng/mL and 2.98 ng/mL. The “T max, individual patients” value ([4]; Day 28, one line per patient) was 0.50 h (6×) and 4.00 h and 2.00 h, the “PRI-002 plasma level, individual patients” value ([4]; day 1, 2 h, one line per patient) was 0.878 and the “PRI-002 plasma level, individual patients” value ([4]; day 1, Pre-dose, one line per patient) was 0 ng/mL. The AUC(0-t) ([4]; human, plasma, po, 300 mg, plasma, Day 1 (n=9), Mean ± SD, MCI/mild AD patients) was 9.98 ± 7.46 ng·h/mL, the AUC(0-t) ([4]; human, plasma, po, 300 mg, plasma, Day 28 (n=8), Mean ± SD, MCI/mild AD patients) was 26.8 ± 23.8 ng·h/mL and the AUC(0-t) ([4]; human, plasma, po, 300 mg, plasma, Day 28 (n=8), Median, MCI/mild AD patients) was 20.4 ng·h/mL. It also gave a Cmax ([4]; human, plasma, po, 300 mg, Cmax, plasma, Day 1 (n=9), Mean ± SD, MCI/mild AD patients) of 4.46 ± 3.71 ng/mL, a Cmax ([4]; human, plasma, po, 300 mg, Cmax, plasma, Day 1 (n=9), Median, MCI/mild AD patients) of 3.03 ng/mL and a Cmax ([4]; human, plasma, po, 300 mg, Cmax, plasma, Day 28 (n=8), Mean ± SD, MCI/mild AD patients) of 12.6 ± 13.2 ng/mL. The Cmax ([4]; human, plasma, po, 300 mg, Cmax, plasma, Day 28 (n=8), Median, MCI/mild AD patients) was 6.2 ng/mL, the level at 0.5 h ([4]; human, plasma, po, 300 mg, PRI-002 plasma level, Mean, Day 1, 0.5 h, n=9, MCI/mild AD patients) was 3.1 ng/mL and the level at 1 h ([4]; human, plasma, po, 300 mg, PRI-002 plasma level, Mean, Day 1, 1 h, n=9, MCI/mild AD patients) was 3.5 ng/mL. The level at 2 h ([4]; human, plasma, po, 300 mg, PRI-002 plasma level, Mean, Day 1, 2 h, n=9, MCI/mild AD patients) was 2.6 ng/mL, the level at 4 h ([4]; human, plasma, po, 300 mg, PRI-002 plasma level, Mean, Day 1, 4 h, n=9, MCI/mild AD patients) was 1.9 ng/mL and the level at 0 h ([4]; human, plasma, po, 300 mg, PRI-002 plasma level, Mean, Day 28, 0 h, n=8, MCI/mild AD patients) was 2 ng/mL. It also gave a level at 0.5 h ([4]; human, plasma, po, 300 mg, PRI-002 plasma level, Mean, Day 28, 0.5 h, n=8, MCI/mild AD patients) of 12.5 ng/mL, a level at 1 h ([4]; human, plasma, po, 300 mg, PRI-002 plasma level, Mean, Day 28, 1 h, n=8, MCI/mild AD patients) of 8.4 ng/mL and a level at 2 h ([4]; human, plasma, po, 300 mg, PRI-002 plasma level, Mean, Day 28, 2 h, n=8, MCI/mild AD patients) of 6.1 ng/mL. It also gave a level at 4 h ([4]; human, plasma, po, 300 mg, PRI-002 plasma level, Mean, Day 28, 4 h, n=8, MCI/mild AD patients) of 4.6 ng/mL, a Tmax ([4]; human, plasma, po, 300 mg, Tmax, plasma, Day 1 (n=9), Mean ± SD, MCI/mild AD patients) of 1.94 ± 1.61 h and a Tmax ([4]; human, plasma, po, 300 mg, Tmax, plasma, Day 1 (n=9), Median, MCI/mild AD patients) of 1 h. For the same compound, the Tmax ([4]; human, plasma, po, 300 mg, Tmax, plasma, Day 28 (n=8), Mean ± SD, MCI/mild AD patients) was 1.1 ± 1.3 h, the “AUC 0-4 (Day28/Day1), mean systemic drug increase” value ([4]; n=8, Mean ± SD, MCI/mild AD patients) was 2.5 ± 1.3 fold and the “AUC 0-4 hours” value [4, 6] was 22.0 ng·h/mL. The Cmax [4, 6] was 10.4 ng/mL, the Tmax [4, 6] was 4.0 h and the “AUC 0-4 hours” value [4, 7] was 10 ± 7.5 ng·h/mL. The Tmax [4, 7] was “about 2 h”, the “AUC 0-4 hours” value [4, 8] was 2.0 ng·h/mL and the Cmax [4, 8] was 0.7 ng/mL. The “AUC 0-4 hours” value [4, 9] was 70.9 ng·h/mL, the Tmax [4, 9] was 4.0 h and the Tmax ([4]; plasma, Day 28 (n=8), Mean ± SD, MCI/mild AD patients) was roughly 1 h. The “AUC 0-4 hours” value ([4]; plasma, Day 28 (n=8), Min, MCI/mild AD patients) was 5.9 ng·h/mL, the “PRI-002 Level in CSF of individual patients” value ([5]; Day 28, LLOQ 0.200, minimal values due to non-specific binding to vials, one line per patient, 300 mg q.d. oral) was < 0.200 ng PRI-002/ml (6×) and 0.203 ng PRI-002/ml and 0.377 ng PRI-002/ml and 0.304 ng PRI-002/ml and the “share of the mean predose plasma level that reached the CSF” value ([5]; three CSF samples above LLOQ versus predose plasma of all patients at Day 28) was “approximately 15%”. The “share of the mean predose plasma level that reached the CSF” value ([5]; three CSF samples above LLOQ versus predose plasma of patients 2, 3 and 4 at Day 28) was “approximately 8%”.
